Drawing on US10308639B2, “Phosphatidylinositol 3-kinase inhibitors” (Gilead Sciences, Inc., priority 2014, dated 2019), this text covers IC50 for 22 compounds.

The IC50 is the midpoint of a concentration-inhibition curve.

What all share (assay type): biochemical
The target of assay [1] is T1, PI3Kβ (Homo sapiens, UniProt P42338).
T1 construct: made in house
Put plainly: TR-FRET enzymatic activity assay, PI3Kβ. As to conditions: Table 2a; same assay. In general terms: Time-resolved FRET reads energy transfer from a long-lived donor to a nearby acceptor.

The target of assay [2] is T2, PI3Kδ (Homo sapiens, UniProt O00329).
T2 construct: made in house
T2 sequence (O00329 whole entry): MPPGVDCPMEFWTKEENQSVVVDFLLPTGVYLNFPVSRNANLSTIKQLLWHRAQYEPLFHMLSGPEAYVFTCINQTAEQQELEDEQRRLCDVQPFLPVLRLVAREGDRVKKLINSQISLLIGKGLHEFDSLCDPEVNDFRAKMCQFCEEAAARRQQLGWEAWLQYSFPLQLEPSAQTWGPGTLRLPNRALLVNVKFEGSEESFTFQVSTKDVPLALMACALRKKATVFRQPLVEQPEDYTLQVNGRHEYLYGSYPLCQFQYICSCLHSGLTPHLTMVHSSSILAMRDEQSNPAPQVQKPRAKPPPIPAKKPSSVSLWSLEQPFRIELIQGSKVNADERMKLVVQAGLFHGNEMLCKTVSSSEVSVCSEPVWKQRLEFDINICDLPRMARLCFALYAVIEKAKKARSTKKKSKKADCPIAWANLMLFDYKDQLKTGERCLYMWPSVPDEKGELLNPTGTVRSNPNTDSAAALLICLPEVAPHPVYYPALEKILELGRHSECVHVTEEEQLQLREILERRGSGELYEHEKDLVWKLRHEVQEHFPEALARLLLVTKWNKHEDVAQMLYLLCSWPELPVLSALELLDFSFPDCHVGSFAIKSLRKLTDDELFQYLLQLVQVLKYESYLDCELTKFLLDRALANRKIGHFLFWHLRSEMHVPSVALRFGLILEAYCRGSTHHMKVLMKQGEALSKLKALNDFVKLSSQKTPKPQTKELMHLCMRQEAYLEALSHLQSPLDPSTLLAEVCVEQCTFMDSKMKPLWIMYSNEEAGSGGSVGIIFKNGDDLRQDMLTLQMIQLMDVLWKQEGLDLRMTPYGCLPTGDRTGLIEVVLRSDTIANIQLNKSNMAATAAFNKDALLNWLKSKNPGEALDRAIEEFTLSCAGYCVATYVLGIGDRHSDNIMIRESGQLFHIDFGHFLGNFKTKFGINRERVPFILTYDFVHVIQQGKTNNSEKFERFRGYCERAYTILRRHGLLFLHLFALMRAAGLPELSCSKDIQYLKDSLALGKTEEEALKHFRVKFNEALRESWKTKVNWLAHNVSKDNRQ
T2 sequence (P27986 whole entry partner): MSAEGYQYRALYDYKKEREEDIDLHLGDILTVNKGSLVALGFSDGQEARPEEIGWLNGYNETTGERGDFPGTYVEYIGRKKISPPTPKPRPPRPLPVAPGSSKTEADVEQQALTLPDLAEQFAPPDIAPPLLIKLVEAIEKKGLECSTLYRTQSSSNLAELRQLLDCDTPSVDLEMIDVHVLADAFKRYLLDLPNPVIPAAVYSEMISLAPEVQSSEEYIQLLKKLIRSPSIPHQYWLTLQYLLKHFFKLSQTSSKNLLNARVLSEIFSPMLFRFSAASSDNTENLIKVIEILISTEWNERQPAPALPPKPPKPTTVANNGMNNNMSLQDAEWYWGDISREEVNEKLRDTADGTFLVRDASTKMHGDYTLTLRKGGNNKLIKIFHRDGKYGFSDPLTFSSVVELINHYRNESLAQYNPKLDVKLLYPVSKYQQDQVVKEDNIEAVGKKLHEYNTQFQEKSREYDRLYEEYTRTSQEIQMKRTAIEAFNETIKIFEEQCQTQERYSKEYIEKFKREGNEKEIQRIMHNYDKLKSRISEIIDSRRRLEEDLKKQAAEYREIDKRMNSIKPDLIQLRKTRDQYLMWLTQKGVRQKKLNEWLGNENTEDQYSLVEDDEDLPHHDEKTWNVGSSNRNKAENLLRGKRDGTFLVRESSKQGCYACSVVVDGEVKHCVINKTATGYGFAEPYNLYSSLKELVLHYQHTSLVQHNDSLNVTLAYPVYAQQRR
The assay is described as follows: TR-FRET enzymatic activity assay, PI3Kδ. As to conditions: Table 2a; same assay.

Assay [3] addresses T3, PI3Kγ (Homo sapiens, UniProt P48736).
T3 construct: made in house
The assay is described as follows: TR-FRET enzymatic activity assay, PI3Kγ. As to conditions: Table 2a; same assay; read-out: PI3Kγ IC50. The method in brief:
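Each PI3K isoform is tested in an enzymatic format. Signal comes from time-resolved fluorescence energy transfer.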

T1 sequence (P42338 whole entry): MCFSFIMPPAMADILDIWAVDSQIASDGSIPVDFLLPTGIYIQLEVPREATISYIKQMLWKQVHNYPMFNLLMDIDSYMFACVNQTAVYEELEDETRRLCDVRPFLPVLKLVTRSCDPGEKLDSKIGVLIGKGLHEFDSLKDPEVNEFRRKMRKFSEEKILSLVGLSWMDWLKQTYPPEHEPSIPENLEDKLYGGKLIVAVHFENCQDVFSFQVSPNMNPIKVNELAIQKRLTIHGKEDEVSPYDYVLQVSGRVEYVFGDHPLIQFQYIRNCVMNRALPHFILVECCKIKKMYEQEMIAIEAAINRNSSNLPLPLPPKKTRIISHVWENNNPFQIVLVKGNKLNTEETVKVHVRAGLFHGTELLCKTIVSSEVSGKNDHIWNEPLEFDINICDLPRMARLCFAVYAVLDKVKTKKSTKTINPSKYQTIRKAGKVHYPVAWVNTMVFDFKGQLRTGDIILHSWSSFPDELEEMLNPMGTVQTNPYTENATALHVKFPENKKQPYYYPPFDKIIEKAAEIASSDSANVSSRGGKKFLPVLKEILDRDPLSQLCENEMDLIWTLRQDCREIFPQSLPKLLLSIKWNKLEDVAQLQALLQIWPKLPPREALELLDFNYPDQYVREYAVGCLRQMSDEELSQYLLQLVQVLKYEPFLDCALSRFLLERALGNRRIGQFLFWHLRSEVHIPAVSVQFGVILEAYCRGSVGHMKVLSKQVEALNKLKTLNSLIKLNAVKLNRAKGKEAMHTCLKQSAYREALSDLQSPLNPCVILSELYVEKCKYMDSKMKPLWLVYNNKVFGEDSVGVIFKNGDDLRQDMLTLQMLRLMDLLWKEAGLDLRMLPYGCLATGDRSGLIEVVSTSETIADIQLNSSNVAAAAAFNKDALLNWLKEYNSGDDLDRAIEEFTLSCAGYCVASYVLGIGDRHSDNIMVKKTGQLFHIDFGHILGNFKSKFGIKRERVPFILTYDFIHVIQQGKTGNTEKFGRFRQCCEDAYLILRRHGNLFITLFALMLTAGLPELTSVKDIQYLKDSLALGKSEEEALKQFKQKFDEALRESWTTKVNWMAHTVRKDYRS
T1 sequence (P27986 whole entry partner): as the sequence (P27986 whole entry partner) above
T3 sequence (P48736 whole entry): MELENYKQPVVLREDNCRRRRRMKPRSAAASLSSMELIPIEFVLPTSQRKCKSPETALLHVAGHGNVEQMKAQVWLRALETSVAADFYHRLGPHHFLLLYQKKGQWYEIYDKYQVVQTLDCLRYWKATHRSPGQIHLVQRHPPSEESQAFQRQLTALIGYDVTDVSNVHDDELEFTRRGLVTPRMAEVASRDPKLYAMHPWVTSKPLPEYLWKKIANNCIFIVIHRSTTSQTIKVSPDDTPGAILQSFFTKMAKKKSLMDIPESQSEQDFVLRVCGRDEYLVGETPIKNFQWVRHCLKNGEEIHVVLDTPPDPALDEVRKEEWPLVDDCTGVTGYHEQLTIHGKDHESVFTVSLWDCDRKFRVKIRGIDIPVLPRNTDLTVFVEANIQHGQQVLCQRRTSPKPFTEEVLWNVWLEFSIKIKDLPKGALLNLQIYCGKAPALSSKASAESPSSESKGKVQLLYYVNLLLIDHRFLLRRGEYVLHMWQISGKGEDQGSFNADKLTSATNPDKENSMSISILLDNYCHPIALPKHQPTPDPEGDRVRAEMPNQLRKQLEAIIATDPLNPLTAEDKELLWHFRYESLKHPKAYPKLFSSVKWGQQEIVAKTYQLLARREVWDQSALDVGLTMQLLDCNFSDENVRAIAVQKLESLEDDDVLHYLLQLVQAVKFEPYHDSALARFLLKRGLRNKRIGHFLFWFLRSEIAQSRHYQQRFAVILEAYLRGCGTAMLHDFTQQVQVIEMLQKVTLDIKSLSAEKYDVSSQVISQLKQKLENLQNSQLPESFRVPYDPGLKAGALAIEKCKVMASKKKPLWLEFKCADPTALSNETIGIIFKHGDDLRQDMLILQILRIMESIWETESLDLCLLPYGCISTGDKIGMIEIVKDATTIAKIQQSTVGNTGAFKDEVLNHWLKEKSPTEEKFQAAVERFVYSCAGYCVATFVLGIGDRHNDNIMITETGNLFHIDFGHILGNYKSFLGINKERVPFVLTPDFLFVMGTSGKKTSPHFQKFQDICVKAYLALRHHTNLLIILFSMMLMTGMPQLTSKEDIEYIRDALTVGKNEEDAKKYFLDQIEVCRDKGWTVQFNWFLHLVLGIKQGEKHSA

For `C[C@H](Nc1nc(N)nc(C(F)F)c1C#N)c1nc2c(F)ccc(F)c2c(=O)n1-c1cc[nH]n1` [Compound 192, (S)-2-amino-4-((1-(5,8-difluoro-4-oxo-3-(1H-pyrazol-3-yl)-3,4-dihydroquinazolin-2-yl)ethyl)amino)-6-(difluoromethyl)pyrimidine-5-carbonitrile], the IC50 in assay [1] amounted to 62 nM; in assay [2], 21 nM; in assay [3] it was 4700 nM.

Consider `N#Cc1c(N[C@H](c2nc3c(F)ccc(Cl)c3c(=O)n2-c2cc[nH]n2)C2CC2)nc(N)nc1C(F)F` [Compound 194, (S)-2-amino-4-(((5-chloro-8-fluoro-4-oxo-3-(1H-pyrazol-3-yl)-3,4-dihydroquinazolin-2-yl)(cyclopropyl)methyl)amino)-6-(difluoromethyl)pyrimidine-5-carbonitrile], for which the IC50 amounted to 23 nM in assay [1], 20 nM in assay [2] and 2200 nM in assay [3].

For the compound `N#Cc1c(N[C@H](c2nc3c(F)cc(F)cc3c(=O)n2-c2cc[nH]n2)C2CC2)nc(N)nc1C(F)F` [Compound 195, (S)-2-amino-4-((cyclopropyl(6,8-difluoro-4-oxo-3-(1H-pyrazol-3-yl)-3,4-dihydroquinazolin-2-yl)methyl)amino)-6-(difluoromethyl)pyrimidine-5-carbonitrile], the IC50 in assay [1] turned out to be 42 nM; in assay [2] it was 24 nM; in assay [3], 3800 nM.

For `N#Cc1c(N[C@H](c2nc3c(Cl)cccc3c(=O)n2-c2cc[nH]n2)C2CC2)nc(N)nc1C(F)F` [Compound 196, (S)-2-amino-4-(((8-chloro-4-oxo-3-(1H-pyrazol-3-yl)-3,4-dihydroquinazolin-2-yl)(cyclopropyl)methyl)amino)-6-(difluoromethyl)pyrimidine-5-carbonitrile], the IC50 in assay [1] is 19 nM; in assay [2] it was 19 nM; in assay [3], 6900 nM.

Take `C[C@H](Nc1nc(C(F)F)nc(N)c1C#N)c1nc2cccc(Cl)c2c(=O)n1-c1cc[nH]n1` [Compound 197, (S)-4-amino-6-((1-(5-chloro-4-oxo-3-(1H-pyrazol-3-yl)-3,4-dihydroquinazolin-2-yl)ethyl)amino)-2-(difluoromethyl)pyrimidine-5-carbonitrile]: the IC50 in assay [1] was 700 nM; in assay [2] it was 540 nM; in assay [3] it was over 10000 nM.

Regarding `C[C@H](Nc1nc(C(F)F)nc(N)c1C#N)c1nc2c(Cl)cc(F)cc2c(=O)n1-c1cc[nH]n1` [Compound 198, (S)-4-amino-6-((1-(8-chloro-6-fluoro-4-oxo-3-(1H-pyrazol-3-yl)-3,4-dihydroquinazolin-2-yl)ethyl)amino)-2-(difluoromethyl)pyrimidine-5-carbonitrile], the half-maximal inhibitory concentration (IC50) in assay [1] is 580 nM; in assay [2], 830 nM; in assay [3], over 10000 nM.

`C[C@H](Nc1nc(N)nc(N)c1Cl)c1nc2cccc(Cl)c2c(=O)n1-c1cc(N)[nH]n1` [Compound 199, (S)-3-(5-amino-1H-pyrazol-3-yl)-5-chloro-2-(1-((2,6-diamino-5-chloropyrimidin-4-yl)amino)ethyl)quinazolin-4(3H)-one]: the results for the IC50 in assay [1], in assay [2] and in assay [3] were 7 nM, 16 nM and 5400 nM, respectively.

For the compound `C[C@H](Nc1nc(N)nc(N)c1Cl)c1nc2c(C(F)F)cccc2c(=O)n1-c1cc[nH]n1` [Compound 200, (S)-2-(1-((2,6-diamino-5-chloropyrimidin-4-yl)amino)ethyl)-8-(difluoromethyl)-3-(1H-pyrazol-3-yl)quinazolin-4(3H)-one], the IC50 is 280 nM in assay [1], 160 nM in assay [2] and over 10000 nM in assay [3].

On to `C[C@H](Nc1nc(N)nc(N)c1C(F)(F)F)c1nc2cccc(Cl)c2c(=O)n1-c1cc[nH]n1` [Compound 201, (S)-5-chloro-2-(1-((2,6-diamino-5-(trifluoromethyl)pyrimidin-4-yl)amino)ethyl)-3-(1H-pyrazol-3-yl)quinazolin-4(3H)-one], for which the IC50 turned out to be 3 nM in assay [1], 3 nM in assay [2] and 1000 nM in assay [3].

Turning to `C[C@H](Nc1ncnc2scc(C#N)c12)c1nc2cccc(Cl)c2c(=O)n1-c1cc[nH]n1` [Compound 202, (S)-4-((1-(5-chloro-4-oxo-3-(1H-pyrazol-3-yl)-3,4-dihydroquinazolin-2-yl)ethyl)amino)thieno[2,3-d]pyrimidine-5-carbonitrile], the IC50 is 62 nM in assay [1], 0.5 nM in assay [2] and 14 nM in assay [3].

Regarding `Cc1c[nH]nc1-n1c([C@@H](Nc2nc(N)nc(C)c2C#N)C2CC2)nc2c(C#N)cccc2c1=O` [Compound 203, (S)-2-(((2-amino-5-cyano-6-methylpyrimidin-4-yl)amino)(cyclopropyl)methyl)-3-(4-methyl-1H-pyrazol-3-yl)-4-oxo-3,4-dihydroquinazoline-8-carbonitrile], the results for the IC50 in assay [1], in assay [2] and in assay [3] were 37 nM, 5 nM and over 10000 nM, respectively.

Regarding `Cc1c[nH]nc1-n1c([C@@H](Nc2nc(N)nc(N)c2Cl)C2CC2)nc2c(C#N)cccc2c1=O` [Compound 204, (S)-2-(cyclopropyl((2,6-diamino-5-chloropyrimidin-4-yl)amino)methyl)-3-(4-methyl-1H-pyrazol-3-yl)-4-oxo-3,4-dihydroquinazoline-8-carbonitrile], the IC50 in assay [1] was 3200 nM; in assay [2], 310 nM; in assay [3], over 10000 nM.

For `C[C@H](Nc1nc(N)nc(N)c1C#N)c1nc2cccc(C(F)(F)F)c2c(=O)n1-c1cc[nH]n1` [Compound 205, (S)-2,4-diamino-6-((1-(4-oxo-3-(1H-pyrazol-3-yl)-5-(trifluoromethyl)-3,4-dihydroquinazolin-2-yl)ethyl)amino)pyrimidine-5-carbonitrile], the values for the IC50 in assay [1], in assay [2] and in assay [3] were 2 nM, 0.7 nM and 320 nM, respectively.

For `C[C@H](Nc1nc(N)nc(N)c1C#N)c1nc2cccc(C(F)(F)F)c2c(=O)n1-c1cn[nH]c1` [Compound 206, (S)-2,4-diamino-6-((1-(4-oxo-3-(1H-pyrazol-4-yl)-5-(trifluoromethyl)-3,4-dihydroquinazolin-2-yl)ethyl)amino)pyrimidine-5-carbonitrile], the IC50 in assay [1] was determined as 3 nM; in assay [2] it was 2 nM; in assay [3], 120 nM.

For `N#Cc1c(N)nc(N)nc1N[C@H](c1nc2cccc(C(F)(F)F)c2c(=O)n1-c1cc[nH]n1)C1CC1` [Compound 207, (S)-2,4-diamino-6-((cyclopropyl(4-oxo-3-(1H-pyrazol-3-yl)-5-(trifluoromethyl)-3,4-dihydroquinazolin-2-yl)methyl)amino)pyrimidine-5-carbonitrile], the IC50 is 4 nM in assay [1], 2 nM in assay [2] and 640 nM in assay [3].

On to `C[C@H](Nc1nc(N)nc(N)c1Cl)c1nc2cccc(C(F)(F)F)c2c(=O)n1-c1cc[nH]n1` [Compound 208, (S)-2-(1-((2,6-diamino-5-chloropyrimidin-4-yl)amino)ethyl)-3-(1H-pyrazol-3-yl)-5-(trifluoromethyl)quinazolin-4(3H)-one], for which the figures for the IC50 in assay [1], in assay [2] and in assay [3] were 8 nM, 6 nM and 4400 nM, respectively.

Take `C[C@H](Nc1nc(N)nc(N)c1Cl)c1nc2cccc(C(F)(F)F)c2c(=O)n1-c1cn[nH]c1` [Compound 209, (S)-2-(1-((2,6-diamino-5-chloropyrimidin-4-yl)amino)ethyl)-3-(1H-pyrazol-4-yl)-5-(trifluoromethyl)quinazolin-4(3H)-one]: the IC50 in assay [1] is 83 nM; in assay [2], 16 nM; in assay [3], 1800 nM.

`Nc1nc(N)c(Cl)c(N[C@H](c2nc3cccc(C(F)(F)F)c3c(=O)n2-c2cc[nH]n2)C2CC2)n1` [Compound 210, (S)-2-(cyclopropyl((2,6-diamino-5-chloropyrimidin-4-yl)amino)methyl)-3-(1H-pyrazol-3-yl)-5-(trifluoromethyl)quinazolin-4(3H)-one]: the results for the IC50 in assay [1], in assay [2] and in assay [3] were 37 nM, 19 nM and 6600 nM, respectively.

As to `C[C@H](Nc1nc(N)nc(N)c1C#N)c1nc2cccc(C(F)F)c2c(=O)n1-c1cc[nH]n1` [Compound 211, (S)-2,4-diamino-6-((1-(5-(difluoromethyl)-4-oxo-3-(1H-pyrazol-3-yl)-3,4-dihydroquinazolin-2-yl)ethyl)amino)pyrimidine-5-carbonitrile], the IC50 amounted to 0.6 nM in assay [1], 0.3 nM in assay [2] and 82 nM in assay [3].

Regarding `C[C@H](Nc1nc(N)nc(N)c1C#N)c1nc2cccc(C(F)F)c2c(=O)n1-c1cn[nH]c1` [Compound 212, (S)-2,4-diamino-6-((1-(5-(difluoromethyl)-4-oxo-3-(1H-pyrazol-4-yl)-3,4-dihydroquinazolin-2-yl)ethyl)amino)pyrimidine-5-carbonitrile], the concentration for half-maximal inhibition (IC50) in assay [1] is 1 nM; in assay [2], 0.7 nM; in assay [3], 34 nM.

Take `C[C@H](Nc1nc(N)nc(N)c1Cl)c1nc2cccc(C(F)F)c2c(=O)n1-c1cn[nH]c1` [Compound 213, (S)-2-(1-((2,6-diamino-5-chloropyrimidin-4-yl)amino)ethyl)-5-(difluoromethyl)-3-(1H-pyrazol-4-yl)quinazolin-4(3H)-one]: the values for the IC50 in assay [1], in assay [2] and in assay [3] were 36 nM, 5 nM and 520 nM, respectively.

With `N#Cc1c(N)nc(N)nc1N[C@H](c1nc2cccc(C(F)F)c2c(=O)n1-c1cc[nH]n1)C1CC1` [Compound 214, (S)-2,4-diamino-6-((cyclopropyl(5-(difluoromethyl)-4-oxo-3-(1H-pyrazol-3-yl)-3,4-dihydroquinazolin-2-yl)methyl)amino)pyrimidine-5-carbonitrile], the IC50 in assay [1] amounted to 2 nM; in assay [2], 0.6 nM; in assay [3] it was 240 nM.
